Assay results from PMC2424174, “Suppression of Tumor Growth and Angiogenesis by a Specific Antagonist of the Cell-Surface Expressed Nucleolin” (PLoS ONE, 2008).

Experiments:
[1] = test system: U87MG cells; assay: Colony formation in soft agar, U87MG; assay type: cell-based, human; details: 5 µM HB-19, U87MG
Protocol: Figure 4 HB-19 inhibits colony formation in soft agar by tumor cell lines. (A) MDA-MB-231 cells in culture medium were seeded in triplicate in the absence (histogram C) or presence of 0.1, 0.5 and 1 of µM HB-19, or 0.1 µM of the anti-nucleolin mAb MS-3 or control IgG, or 10 µM bisphosphonate (BisP). (B) Various tumor cell lines (as indicated) in culture medium were seeded in triplicate in the absence (histogram Control) or presence of 5 µM HB-19. After 10–21 days, colonies with diameters greater than 50 µm were scored as positive. Statistical significance: *0.01<p<[…], **p<0.01, ***p<0.001.
Carcinoma cells (2×10^4) were mixed in 0.35% top agar, diluted in complete medium (DMEM containing 10% FBS) in the absence or presence of HB-19, and plated onto 0.8% bottom agar into 12-well plates. Cells were treated twice a week during 10 to 21 days. Colonies with diameters greater than 50 µm were scored as positive using a phase contrast microscope equipped with a measuring grid at magnification 100× [45]. The number of colonies was determined by analyzing 5 fields/well from 3 wells and the test was repeated at least twice.

[2] = test system: nucleolin; assay: Nucleolin expression in HB-19 treated MDA-MB-231 cells (immunoblot / immunofluorescence); assay type: cell-based, human; details: for reduction of surface/cytoplasmic nucleolin: 10 µM HB-19, 37°C, vs untreated, immunoblot band intensity
Protocol: Figure 2 HB-19 binds nucleolin expressed on the surface of tumor cells and causes reduction of cytoplasmic/surface but not nuclear nucleolin. (A) HB-19/Btn forms a stable complex with nucleolin expressed on the surface of cells. MDA-MB-231 cells were incubated (45 min, 20°C) with 0, 1, 2, 4, 8 and 12 µM of HB-19/Btn before preparation of surface/cytoplasmic (i.e., nucleus-free) and nuclear extracts, [28]. Samples of surface nucleolin (purified using surface/cytoplasmic extracts from 2×10^7 cells) and crude surface/cytoplasmic and nuclear extracts (from 2×10^6 cells) were analyzed by immunoblotting for the detection of nucleolin using mAb D3. (B) Specific reduction of surface/cytoplasmic nucleolin in HB-19 treated cells. MDA-MB-231 cells were cultured (at 37°C) with 10 µM of HB-19 for 4, 24 and 48 hours before preparation of cytoplasmic and nuclear extracts. Material from 2×10^6 cells (Untreated or HB-19 treated cells as indicated − or + signs, respectively) was analyzed by immunoblotting for the detection of nucleolin. Sections of the gel at the position of the nucleolin bands are presented. […] The intensity of nucleolin protein bands quantified by using the NIH image software indicated 75% and 93% reduction of surface/cytoplasmic nucleolin in HB-19 treated cells at 24 and 48 hours, respectively, compared to the corresponding untreated cells. (C) HB-19 binds the cell surface and enters in the cytoplasm but not the nucleus. MDA-MB-231 cells were incubated at 20°C (for HB-19 Binding) or 37°C (for HB-19 Entry) with 5 µM of HB-19/Btn for 1 hour before fixation in PFA or PFA-Triton, respectively. Fixed cells were successively incubated with rabbit anti-biotin and goat Texas Red-conjugated anti-rabbit IgG and the nuclei were colored with DAPI. Scans corresponding to the cross-section of cells are shown, each with or without the DAPI. (D) Nucleolar nucleolin is not affected in HB-19 treated cells. MDA-MB-231 cells cultured in the absence (Control Cells) or presence of 10 µM of HB-19 for 48 hours (HB-19 Treated Cells) were fixed in PFA-Triton and processed for fluorescence microscopy.
Cells washed in phosphate-buffered saline (PBS) were lysed in buffer E (20 mM Tris–HCl, pH 7.6, 150 mM NaCl, 5 mM MgCl2, 0.2 mM phenylmethylsulfonyl fluoride (PMSF), 5 mM β-mercaptoethanol, aprotinin (1000 U/ml) and 0.5% Triton X-100) and the nuclei were pelleted by centrifugation (1000g for 5 min). […] Aliquots of crude cell extracts were diluted in 2 fold concentrated electrophoresis sample buffer containing SDS, heated and analyzed by SDS- polyacrylamide gel electrophoresis (PAGE). […]

## pseudo-tripeptide Lysψ(CH2N)-Pro-Arg coupled to a template (H2NLys-Lys-Lys-Gly-Pro-Lys-Glu-Lys-AhxCONH2) [HB-19, pseudopeptide presenting pentavalently the pseudo-tripeptide Lysψ(CH2N)-Pro-Arg coupled to a template]
[1]
  colony formation: reduced markedly
[2]; 10 µM HB-19, 24–48 hours
  level and nucleolar localization of nuclear nucleolin: without apparent modification
[2]; 24 hours
  reduction of surface/cytoplasmic nucleolin: 75%
[2]; 48 hours
  reduction of surface/cytoplasmic nucleolin: 93%
[2]; 10 µM HB-19, stained gel
  expression of other cytoplasmic proteins: not affected
